Assay [1] concerns Human large cell immunoblastic lymphoma cell line SR. The assay can be described thus: Inhibition of SR cell proliferation (CellTiter luminescent viability). The assay is classed as cell-based. To be noted: Table IE1, CDK4/6 inhibitor-based, 96 hours, read-out: Inhibitory activity (IC50, nM) on tumor cell proliferation, SR. A digest of the protocol: (§1)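 IC50 is fitted from luminescent viability (CellTiter-Meiluncell) curves. Nine-point, 5-fold dilution series (top stock 2000 μM) are added at 0.5 μL per 100 μL medium to cells plated the day before, with growth at 37 °C and 5% CO2.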

In assay [2] the test system is Human myeloid monocytic leukemia cell line (MV-4-11). The assay can be described thus: Inhibition of MV-4-11 cell proliferation (CellTiter luminescent viability). The assay is classed as cell-based. To be noted: for IC50: Table IE1, CDK4/6 inhibitor-based, MV-4-11, 96 hours, read-out: Inhibitory activity (IC50, nM) on tumor cell proliferation, MV-4-11. A digest of the protocol:
as §1

Assay [3] concerns Human acute lymphocytic leukemia T lymphocytes cell line (CCRF-CEM). Nature of the assay: Inhibition of CCRF-CEM cell proliferation (CellTiter luminescent viability). The assay is classed as cell-based. As to conditions: Table IE1, CDK4/6 inhibitor-based, 96 hours, read-out: Inhibitory activity (IC50, nM) on tumor cell proliferation, CCRF-CEM.
Assay [4] deals with Human breast cancer cell line MCF-7. The assay can be described thus: Inhibition of MCF-7 cell proliferation (CellTiter luminescent viability). To be noted: Table IE1, CDK4/6 inhibitor-based; MCF-7, 96 hours; read-out: Inhibitory activity (IC50, nM) on tumor cell proliferation, MCF-7. On the procedure:
The tumor cells used herein were cultured in a cell culture medium listed in table 3 at 37 °C in an incubator with 5% CO2. Prior to experimentation, all cell lines used were correctly identified by STR profiling, and tested negative for mycoplasma contamination using a mycoplasma detection kit through routine screenings.
The IC50 values of the compounds of the present disclosure (including the compounds in Table 1, Table 2, and Examples 1-468) were determined using the CellTiter-Meiluncell Luminescent Cell Viability Assay Kit from Dalian Meilun Biotech Co., Ltd. The detailed procedure is as follows: Tumor cells were seeded in 96-well cell culture plates at the densities specified in Table 4. On the following day, the test compounds of the present disclosure were subjected to serial dilution. The dilution can be performed according to one of the following two methods: • (1) The first dilution method: The test compounds of the present disclosure (including the compounds in Table 1, Table 2, and Examples 1-468) were subjected to 5-fold serial dilutions starting from a highest concentration of 2000 μM, resulting in a total of 9 concentrations from high to low (2000, 400, 80, 16, 3.2, 0.64, 0.128, 0.0256, 0.00512 μM). Subsequently, 0.5 μL of the test compound dilution was transferred into the 96-well plate containing the cells, with each well containing 100 μL of cell culture medium. […] Into the 96-well plate, the diluted test compounds and corresponding detection reagents were added, resulting in final test compound concentrations of 500 nM and 10 nM, respectively. The experimental procedure is described below using the diluted 2 μM test compound as an example.
0.5 μL of the aforementioned diluted compound of the present disclosure (including the compounds in Table 1, Table 2, and Examples 1-468) was added to the seeded cells in 100 μL of medium, yielding a final test compound concentration of 10 nM. After the cells were treated with the compounds of the present disclosure for a specified period, the cell viability assay reagent was added to the culture medium according to the kit's instructions to determine cell viability. […] All controls were treated using the same procedure as the compounds of the present disclosure. The growth inhibition curves for the compounds of the present disclosure were plotted using Prism GraphPad software, and the IC50 values were calculated therefrom.

Assay [5] deals with Human Acute T Lymphoblastic Leukemia Cells (Molt-4). Nature of the assay: Inhibition of Molt-4 cell proliferation (CellTiter luminescent viability). The assay is classed as cell-based. To be noted: Table IE1, CDK4/6 inhibitor-based; Molt-4, 96 hours; read-out: Inhibitory activity (IC50, nM) on tumor cell proliferation, Molt-4.
Another assay has as its target T1, CDK4 (Homo sapiens, UniProt P11802+Q96SW2).
T1 construct: expression of target proteins in cells; endogenous in cells
The assay can be described thus: Western blot degradation of CDK4. Format: cell-based. As to conditions: MDA-MB-231 Cell; 24 hours. A digest of the protocol: (§2)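 Cells treated with compound, lysed, and target protein detected by Western blot (SDS-PAGE, nitrocellulose transfer). DC50 taken as the concentration giving band grayscale half that of DMSO control, estimated by concentration-response fitting; remaining protein (%) from target band normalised to internal control band; degradation (%) = 1 − remaining.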
For orientation: Immunoblotting shows a protein as a band on a membrane.

The target in the next assay is T2, CDK6 (Homo sapiens, UniProt Q00534+Q96SW2).
T2 construct: expression of target proteins in cells; endogenous in cells
T2 sequence (Q00534 whole entry): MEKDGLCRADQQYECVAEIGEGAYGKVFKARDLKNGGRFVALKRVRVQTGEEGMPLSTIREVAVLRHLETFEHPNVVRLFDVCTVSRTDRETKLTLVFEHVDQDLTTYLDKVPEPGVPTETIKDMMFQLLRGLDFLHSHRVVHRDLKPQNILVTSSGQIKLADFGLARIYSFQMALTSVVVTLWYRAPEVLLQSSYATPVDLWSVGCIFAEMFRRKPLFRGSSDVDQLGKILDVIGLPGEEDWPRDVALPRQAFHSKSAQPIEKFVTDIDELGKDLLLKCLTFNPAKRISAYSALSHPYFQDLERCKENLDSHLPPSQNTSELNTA
T2 sequence (Q96SW2 whole entry): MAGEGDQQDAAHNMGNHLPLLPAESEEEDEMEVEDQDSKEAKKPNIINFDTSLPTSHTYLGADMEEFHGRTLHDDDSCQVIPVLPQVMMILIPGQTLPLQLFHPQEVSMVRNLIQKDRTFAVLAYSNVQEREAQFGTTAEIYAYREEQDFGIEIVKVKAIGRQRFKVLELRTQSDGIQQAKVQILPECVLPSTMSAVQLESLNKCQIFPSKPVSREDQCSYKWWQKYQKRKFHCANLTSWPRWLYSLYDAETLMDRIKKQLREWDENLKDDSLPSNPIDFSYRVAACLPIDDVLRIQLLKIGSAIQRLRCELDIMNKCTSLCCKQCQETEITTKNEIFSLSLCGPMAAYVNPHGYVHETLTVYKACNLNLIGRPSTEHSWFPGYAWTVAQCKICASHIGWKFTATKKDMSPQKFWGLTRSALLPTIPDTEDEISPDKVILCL
T2 sequence (Q16531 whole entry partner): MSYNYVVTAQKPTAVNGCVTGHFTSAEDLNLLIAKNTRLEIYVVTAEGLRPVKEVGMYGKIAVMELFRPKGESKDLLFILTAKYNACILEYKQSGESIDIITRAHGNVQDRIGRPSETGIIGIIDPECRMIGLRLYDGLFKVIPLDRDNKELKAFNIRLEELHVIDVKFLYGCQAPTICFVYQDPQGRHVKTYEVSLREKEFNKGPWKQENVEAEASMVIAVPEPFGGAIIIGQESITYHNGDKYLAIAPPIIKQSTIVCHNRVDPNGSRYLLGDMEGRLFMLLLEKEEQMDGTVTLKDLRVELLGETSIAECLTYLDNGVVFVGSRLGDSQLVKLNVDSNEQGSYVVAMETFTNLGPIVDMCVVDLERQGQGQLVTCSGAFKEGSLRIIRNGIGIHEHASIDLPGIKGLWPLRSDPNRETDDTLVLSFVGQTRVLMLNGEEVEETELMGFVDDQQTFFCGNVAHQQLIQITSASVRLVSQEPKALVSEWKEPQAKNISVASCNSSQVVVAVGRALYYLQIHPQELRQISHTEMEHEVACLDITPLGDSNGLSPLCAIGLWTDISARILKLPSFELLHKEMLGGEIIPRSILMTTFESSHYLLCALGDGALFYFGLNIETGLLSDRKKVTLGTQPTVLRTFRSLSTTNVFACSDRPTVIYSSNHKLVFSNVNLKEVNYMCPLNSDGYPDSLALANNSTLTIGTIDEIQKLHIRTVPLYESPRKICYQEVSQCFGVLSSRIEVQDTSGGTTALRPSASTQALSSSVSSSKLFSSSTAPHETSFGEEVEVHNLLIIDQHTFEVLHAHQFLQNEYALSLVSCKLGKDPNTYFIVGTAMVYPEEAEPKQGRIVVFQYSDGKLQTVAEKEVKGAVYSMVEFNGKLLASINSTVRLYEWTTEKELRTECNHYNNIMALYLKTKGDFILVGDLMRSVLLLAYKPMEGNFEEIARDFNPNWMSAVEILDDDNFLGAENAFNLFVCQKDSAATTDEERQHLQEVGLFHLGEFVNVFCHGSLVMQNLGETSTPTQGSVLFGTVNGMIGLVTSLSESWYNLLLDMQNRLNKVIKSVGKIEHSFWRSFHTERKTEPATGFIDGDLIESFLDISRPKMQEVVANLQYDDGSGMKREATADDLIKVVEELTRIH
Nature of the assay: Western blot degradation of CDK6. To be noted: MDA-MB-231 Cell; 24 hours. Format: cell-based. A digest of the protocol:
as §2

Assay [6] concerns Human lung cancer cell line (H292). The assay can be described thus: Inhibition of H292 cell proliferation (CellTiter luminescent viability). Format: cell-based. To be noted: NCI-H292, Table IE2, CDK4/6 inhibitor-based, 96 hours.

T1 sequence (P11802 whole entry): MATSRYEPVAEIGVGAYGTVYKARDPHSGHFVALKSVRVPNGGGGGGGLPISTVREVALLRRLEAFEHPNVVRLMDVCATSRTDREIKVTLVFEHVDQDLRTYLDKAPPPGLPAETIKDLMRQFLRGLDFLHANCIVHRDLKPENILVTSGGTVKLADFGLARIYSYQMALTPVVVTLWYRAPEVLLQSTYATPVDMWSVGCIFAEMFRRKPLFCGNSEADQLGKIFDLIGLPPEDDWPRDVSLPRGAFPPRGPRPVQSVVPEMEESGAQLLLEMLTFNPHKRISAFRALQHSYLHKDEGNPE
T1 sequence (Q96SW2 whole entry): as the sequence (Q96SW2 whole entry) above
T1 sequence (Q16531 whole entry partner): as the sequence (Q16531 whole entry partner) above

In the case of `Cc1nc2c(F)cc(-c3nc(Nc4ccc(N5CCN(Cc6ccc7c(c6)CN(N6CCC(=O)NC6=O)C7=O)CC5)cn4)ncc3F)cc2n1C(C)C` [GT-06672, 1-(5-((4-(6-((5-fluoro-4-(4-fluoro-1-isopropyl-2-methyl-1H-benzo[d]imidazol-6-yl)pyrimidin-2-yl)amino)pyridin-3-yl)piperazin-1-yl)methyl)-1-oxoisoindolin-2-yl)dihydropyrimidine-2,4 (1H,3H)-dione], the IC50 in assay [1] lay in the range of 100 to 300 nM; in assay [2], 10 to 50 nM; in assay [3], 400 to 800 nM; in assay [4] it was 100 to 300 nM.
As for `Cc1nc2c(F)cc(-c3nc(Nc4ccc(N5CCC(N6CCN(Cc7ccc8c(c7)CN(N7CCC(=O)NC7=O)C8=O)CC6)CC5)cn4)ncc3F)cc2n1C(C)C` [GT-06736, 1-(5-((4-(1-(6-((5-fluoro-4-(4-fluoro-1-isopropyl-2-methyl-1H-benzo[d]imidazol-6-yl)pyrimidin-2-yl)amino)pyridin-3-yl)piperidin-4-yl)piperazin-1-yl)methyl)-1-oxoisoindolin-2-yl)dihydropyrimidine-2,4 (1H,3H)-dione], the IC50 in assay [1] fell in the range of 10 to 50 nM; in assay [5], 100 to 300 nM; in assay [2] it was 10 to 50 nM; in assay [3] it was 100 to 300 nM; in assay [4] it was 50 to 100 nM. For the same compound, on CDK4, the “Degradation of substrate protein CDK4 (substrate protein remaining %)” value is “B (80%<substrate protein remaining %≤100%)”. For the same compound, the “Degradation of substrate protein CDK6 (substrate protein remaining %)” value at CDK6 was “A (0%≤substrate protein remaining %≤80%)”.
Regarding `Cc1nc2c(F)cc(-c3nc(Nc4ccc(N5CCC(N(C)Cc6ccc7c(c6)CN(N6CCC(=O)NC6=O)C7=O)CC5)cn4)ncc3F)cc2n1C(C)C` [GT-06837, 1-(5-(((1-(6-((5-fluoro-4-(4-fluoro-1-isopropyl-2-methyl-1H-benzo[d]imidazol-6-yl)pyrimidin-2-yl)amino)pyridin-3-yl)piperidin-4-yl)(methyl)amino)methyl)-1-oxoisoindolin-2-yl)dihydropyrimidine-2,4 (1H,3H)-dione], the IC50 in assay [1] fell in the range of 10 to 50 nM; in assay [5], 100 to 300 nM; in assay [2] it was 10 to 50 nM; in assay [3] it was 100 to 300 nM; in assay [4], 100 to 300 nM. Also, the “Degradation of substrate protein CDK4 (substrate protein remaining %)” value on CDK4 is on record as “A (0%≤substrate protein remaining %≤80%)”. On CDK6, the “Degradation of substrate protein CDK6 (substrate protein remaining %)” value was “A (0%≤substrate protein remaining %≤80%)”.
`CC(=O)c1c(C)c2cnc(Nc3ccc(N4CCNCC4)cn3)nc2n(C2CCCC2)c1=O` [Palbociclib, reference compound]: the IC50 in assay [1] was 1000 to 5000 nM; in assay [5], 1000 to 5000 nM; in assay [2], 300 to 400 nM; in assay [3] it was 1000 to 5000 nM; in assay [4] it was 1000 to 5000 nM. Besides, the inhibition at 0.01 µM in assay [6] (H292, 10 nM, read-out: Inhibition Rate at 10 nM (%)) was in the range of 10 to 15%. In assay [6] (H292, 500 nM, read-out: Inhibition Rate at 500 nM (%)), the inhibition at 0.5 µM was in the range of 25 to 30%.
As for `CN(C)C(=O)c1cc2cnc(Nc3ccc(N4CCNCC4)cn3)nc2n1C1CCCC1` [Ribociclib, reference compound], the IC50 is 5000 to 10000 nM in assay [1]; above 10000 nM in assay [5]; 5000 to 10000 nM in assay [2]; 1000 to 5000 nM in assay [3]; 1000 to 5000 nM in assay [4]. In addition, in assay [2] (Table IE3, CDK4/6 inhibitor-based, MV-4-11, 10 nM, 96 hours), the “Inhibition Rate at 10 nM (%)” value is listed as “IEb2 (5% ≤ IEb2 < 10%)”. In addition, the “Inhibition Rate at 500 nM (%)” value in assay [2] (Table IE3, CDK4/6 inhibitor-based, MV-4-11, 500 nM, 96 hours) was “IEb7 (30% ≤ IEb7 < 35%)”.

A word on the inhibition: it is the drop in the measured response relative to a control, in per cent.

The values above are taken from US20260364184A1, “COMPOUND BASED ON OXOISOINDOLINYL-SUBSTITUTED TETRAHYDROPYRIMIDINE-DIONE AND USE THEREOF” (GLUETACS THERAPEUTICS (SHANGHAI) CO., LTD., priority 2023, published 2026).
